Assay results as given in ChEMBL document CHEMBL1201862, “PubChem BioAssay data set” (2004).
Active and inactive are the calls of the source.

How the values were obtained:
[1] = cells; format: functional, cell-based
[2] = cells; format: functional, cell-based; remark: listed apart in the source
[3] = target: T1, Short transient receptor potential channel 4 (Mus musculus, UniProt Q9QUQ5); experiment: mouse TRPC4 channel inhibitors, dose response, cell-based, HEK293 TRPC4/mu-opioid, Fluo-4 calcium (AID 434942); format: functional;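 further: potency of inhibitors blocking the TRPC4 calcium response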
T1 sequence (Q9QUQ5 whole entry): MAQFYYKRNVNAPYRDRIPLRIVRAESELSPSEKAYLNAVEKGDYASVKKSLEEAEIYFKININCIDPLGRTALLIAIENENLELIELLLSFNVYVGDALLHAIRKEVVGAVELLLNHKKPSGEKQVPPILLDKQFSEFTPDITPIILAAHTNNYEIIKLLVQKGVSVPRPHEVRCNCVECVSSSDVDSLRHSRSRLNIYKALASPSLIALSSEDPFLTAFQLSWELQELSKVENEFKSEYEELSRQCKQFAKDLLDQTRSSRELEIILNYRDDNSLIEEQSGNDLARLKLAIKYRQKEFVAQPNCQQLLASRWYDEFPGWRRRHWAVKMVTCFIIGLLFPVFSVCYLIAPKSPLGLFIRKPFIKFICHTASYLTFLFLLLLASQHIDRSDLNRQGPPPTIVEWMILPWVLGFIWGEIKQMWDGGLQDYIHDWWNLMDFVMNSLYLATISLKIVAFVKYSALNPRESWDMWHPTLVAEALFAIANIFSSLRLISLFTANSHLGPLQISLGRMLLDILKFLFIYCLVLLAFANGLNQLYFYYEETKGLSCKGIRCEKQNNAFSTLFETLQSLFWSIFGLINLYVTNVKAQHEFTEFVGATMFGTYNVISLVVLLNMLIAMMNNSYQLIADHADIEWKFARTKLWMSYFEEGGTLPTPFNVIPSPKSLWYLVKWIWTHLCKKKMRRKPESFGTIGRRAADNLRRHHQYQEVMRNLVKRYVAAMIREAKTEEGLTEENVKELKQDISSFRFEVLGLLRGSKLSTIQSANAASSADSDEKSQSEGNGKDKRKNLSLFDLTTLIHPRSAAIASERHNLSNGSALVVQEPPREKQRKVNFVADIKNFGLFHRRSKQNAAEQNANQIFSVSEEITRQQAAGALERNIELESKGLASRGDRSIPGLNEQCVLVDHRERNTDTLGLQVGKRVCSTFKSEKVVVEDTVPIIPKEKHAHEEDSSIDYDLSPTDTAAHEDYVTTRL

[4] = cytotoxicity in HEK-293T cells, dose response, cytotoxicity control for TCR NF-kB inhibitor project, luminescence, T-cell screen hits (AID 489026); format: functional, cell-based;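 further: cells exposed to compound about 14 hours before the viability readout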
[5] = system: INS1; experiment: beta cell apoptosis inhibitors, cytokine rescue, dose response, luminescence, retest (AID 449756); format: functional, cell-based; conditions: Rattus norvegicus;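 further: cell death triggered by IL-1 beta plus TNF-alpha plus IFN-gamma mixture; protective hits raise ATP signal compared with cytokine alone wells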
[6] = cells; format: functional
[7] = microbe, parasite or virus in culture; format: functional; conditions: Mycobacterium tuberculosis
[8] = Luminescence Cell-Based Dose Retest to Confirm Inhibitors of Cancer Stem Cells. [Related pubchem assays (depositor defined):AID2717, AID2721]; format: functional, Homo sapiens; conditions: Homo sapiens
[9] = inhibitors of intracellular T. cruzi replication, confirmation, NIH3T3 host cells, beta-gal luminescence (AID 2044); format: functional, cell-based;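 further: intracellular parasites grown in NIH/3T3 mouse fibroblasts as host cells; luminescent beta-galactosidase reporter signal from transgenic T. cruzi replicating inside host cells; inhibitors lower the luminescence signal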
[10] = target: FAD-linked sulfhydryl oxidase ALR (Homo sapiens, UniProt P55789); experiment: inhibitors of human ALR sulfhydryl oxidase, dose response, biochemical, H2O2 detection, luminescence, cherry-pick (AID 493248)
Chain of FAD-linked sulfhydryl oxidase ALR (P55789 whole entry): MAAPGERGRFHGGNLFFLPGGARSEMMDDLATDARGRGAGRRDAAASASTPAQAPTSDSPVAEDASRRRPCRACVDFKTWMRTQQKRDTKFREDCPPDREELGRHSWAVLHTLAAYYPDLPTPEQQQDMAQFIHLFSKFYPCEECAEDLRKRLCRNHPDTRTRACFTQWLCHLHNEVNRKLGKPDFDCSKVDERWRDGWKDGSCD

[11] = cytotoxicity toward NIH3T3 fibroblasts, dose response, counter-screen, cell-based, ATP luminescence, mouse fibroblasts (AID 2010); format: functional;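 further: cells exposed to compound for about 90 hours before reading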
[12] = target: T2, Rac GTPase-activating protein 1 (Homo sapiens, UniProt Q9H0H5); experiment: MgcRacGAP GTPase-activating activity inhibitors, confirmation, biochemical, ADP Hunter fluorescence, primary and confirmatory (AID 624330); format: functional
T2 sequence (Q9H0H5 whole entry): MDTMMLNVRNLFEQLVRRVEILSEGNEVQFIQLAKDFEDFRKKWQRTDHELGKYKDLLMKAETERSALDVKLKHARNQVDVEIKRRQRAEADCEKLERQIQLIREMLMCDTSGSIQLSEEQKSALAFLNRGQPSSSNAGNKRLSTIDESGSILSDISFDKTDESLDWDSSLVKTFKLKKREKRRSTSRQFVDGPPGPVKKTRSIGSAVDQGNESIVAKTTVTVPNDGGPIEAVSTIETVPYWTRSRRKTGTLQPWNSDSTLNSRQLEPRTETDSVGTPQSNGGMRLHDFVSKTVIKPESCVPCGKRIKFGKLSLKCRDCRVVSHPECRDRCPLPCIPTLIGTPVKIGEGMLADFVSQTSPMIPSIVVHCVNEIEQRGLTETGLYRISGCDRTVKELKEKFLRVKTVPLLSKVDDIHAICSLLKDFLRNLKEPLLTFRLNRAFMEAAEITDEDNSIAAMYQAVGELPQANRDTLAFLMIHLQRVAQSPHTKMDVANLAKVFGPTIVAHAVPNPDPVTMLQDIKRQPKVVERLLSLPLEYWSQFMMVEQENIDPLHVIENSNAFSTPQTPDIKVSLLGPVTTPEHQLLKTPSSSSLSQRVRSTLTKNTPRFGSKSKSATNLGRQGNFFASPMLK

[13] = target: Induced myeloid leukemia cell differentiation protein Mcl-1 (Homo sapiens, UniProt Q07820); format: functional
Chain of Induced myeloid leukemia cell differentiation protein Mcl-1 (Q07820 whole entry): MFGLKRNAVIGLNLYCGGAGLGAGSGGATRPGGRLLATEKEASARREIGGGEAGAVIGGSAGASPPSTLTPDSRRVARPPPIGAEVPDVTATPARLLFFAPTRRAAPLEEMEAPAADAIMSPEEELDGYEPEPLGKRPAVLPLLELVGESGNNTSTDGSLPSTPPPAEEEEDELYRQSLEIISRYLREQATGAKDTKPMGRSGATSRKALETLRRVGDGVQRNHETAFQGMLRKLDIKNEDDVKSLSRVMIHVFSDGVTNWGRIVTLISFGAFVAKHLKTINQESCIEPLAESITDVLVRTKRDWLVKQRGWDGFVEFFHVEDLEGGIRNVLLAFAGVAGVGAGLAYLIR

[14] = target: T3, Heat shock factor protein 1 (Mus musculus, UniProt P38532); experiment: inhibition of MG132-induced HSE-luciferase signal, confirmation, cell-based, NIH3T3, luminescence, dose retest (AID 2382); format: functional;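 further: NIH3T3 fibroblasts with HSF1-driven luciferase reporter stressed by proteasome inhibitor MG132; luminescence from HSF1-driven luciferase expression after 8 hours of MG132 stress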
T3 sequence (P38532 whole entry): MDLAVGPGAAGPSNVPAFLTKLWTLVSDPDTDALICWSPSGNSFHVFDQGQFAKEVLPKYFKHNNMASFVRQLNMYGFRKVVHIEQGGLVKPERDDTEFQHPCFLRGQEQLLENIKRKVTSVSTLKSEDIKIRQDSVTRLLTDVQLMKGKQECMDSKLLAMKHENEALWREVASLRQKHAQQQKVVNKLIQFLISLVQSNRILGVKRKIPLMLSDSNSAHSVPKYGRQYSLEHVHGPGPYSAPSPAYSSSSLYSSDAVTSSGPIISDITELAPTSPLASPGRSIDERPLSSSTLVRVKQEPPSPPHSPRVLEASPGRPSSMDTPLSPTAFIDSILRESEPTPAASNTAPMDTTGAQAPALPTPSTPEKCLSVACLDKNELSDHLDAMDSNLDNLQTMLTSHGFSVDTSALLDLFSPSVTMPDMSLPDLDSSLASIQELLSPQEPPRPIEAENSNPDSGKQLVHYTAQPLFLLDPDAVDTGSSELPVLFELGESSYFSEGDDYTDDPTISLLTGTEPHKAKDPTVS

[15] = system: HEK293; experiment: cells; format: functional, cell-based; conditions: Homo sapiens
[16] = system: HEK293; experiment: cells; format: functional, cell-based; conditions: Homo sapiens; remark: listed apart in the source
[17] = system: HEK293; experiment: NOD1 signaling inhibitors, primary screen, cell-based, luminescence, uHTS (AID 1578); format: functional; conditions: Homo sapiens
[18] = system: HEK293; experiment: NOD2 signaling inhibitors in MDP-stimulated cells, cell-based, uHTS, luminescence (AID 2001); format: functional; conditions: Homo sapiens
[19] = target: T4, Histone-lysine N-methyltransferase NSD2 (Homo sapiens, UniProt O96028); format: biochemical
T4 sequence (O96028 whole entry): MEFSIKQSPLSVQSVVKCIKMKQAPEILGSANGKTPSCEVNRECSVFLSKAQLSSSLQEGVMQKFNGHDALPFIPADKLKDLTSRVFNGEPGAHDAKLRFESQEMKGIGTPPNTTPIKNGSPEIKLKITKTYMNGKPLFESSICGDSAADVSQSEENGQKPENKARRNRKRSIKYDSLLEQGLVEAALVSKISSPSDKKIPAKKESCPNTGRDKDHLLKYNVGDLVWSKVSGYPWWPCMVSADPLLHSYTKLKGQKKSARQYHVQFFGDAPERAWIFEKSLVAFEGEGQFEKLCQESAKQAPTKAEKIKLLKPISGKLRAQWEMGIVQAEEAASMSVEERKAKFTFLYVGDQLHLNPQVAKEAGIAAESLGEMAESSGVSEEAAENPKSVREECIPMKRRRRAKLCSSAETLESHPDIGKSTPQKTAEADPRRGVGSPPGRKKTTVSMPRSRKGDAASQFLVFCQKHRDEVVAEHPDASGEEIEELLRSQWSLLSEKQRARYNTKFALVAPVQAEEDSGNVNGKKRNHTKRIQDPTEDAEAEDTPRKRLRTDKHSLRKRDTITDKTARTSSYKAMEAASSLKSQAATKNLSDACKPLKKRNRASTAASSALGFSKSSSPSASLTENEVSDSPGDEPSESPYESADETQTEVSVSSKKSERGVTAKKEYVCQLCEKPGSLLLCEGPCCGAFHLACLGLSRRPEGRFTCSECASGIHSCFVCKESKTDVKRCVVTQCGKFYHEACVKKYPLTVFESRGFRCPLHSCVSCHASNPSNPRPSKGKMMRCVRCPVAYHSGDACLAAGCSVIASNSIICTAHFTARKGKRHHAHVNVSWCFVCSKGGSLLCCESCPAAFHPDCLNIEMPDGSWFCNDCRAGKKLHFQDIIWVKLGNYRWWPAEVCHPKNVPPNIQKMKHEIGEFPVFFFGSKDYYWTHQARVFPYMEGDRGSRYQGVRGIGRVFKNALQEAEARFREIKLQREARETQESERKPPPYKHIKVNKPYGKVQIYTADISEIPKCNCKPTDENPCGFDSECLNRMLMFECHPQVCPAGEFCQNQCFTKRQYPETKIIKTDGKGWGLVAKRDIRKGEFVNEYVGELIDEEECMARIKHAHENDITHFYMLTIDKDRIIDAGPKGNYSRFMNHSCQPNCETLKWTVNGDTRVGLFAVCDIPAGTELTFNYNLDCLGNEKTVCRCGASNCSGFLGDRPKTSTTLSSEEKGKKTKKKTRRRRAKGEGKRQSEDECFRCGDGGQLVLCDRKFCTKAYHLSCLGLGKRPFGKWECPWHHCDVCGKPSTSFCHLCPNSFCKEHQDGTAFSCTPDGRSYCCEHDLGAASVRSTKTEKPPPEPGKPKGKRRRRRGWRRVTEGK

[20] = inhibitors of SNCA 5'UTR-driven reporter translation, confirmation, H4 neuroglioma cells, luminescence (AID 1988); format: functional, cell-based
[21] = Luminescence Cell-Based Dose Response HTS to Identify Inhibitors of 5'UTR Stem-Loop Driven Prion Protein mRNA Translation in H4 Neuroglioblastoma Cells. [Related pubchem assays: 1827 (Project Summary), 1813 (Primary HTS)]; format: functional
[22] = inhibitors of firefly luciferase expression or activity, dose response, H4 neuroglioma cells, luminescence (AID 1990); format: functional, cell-based
[23] = HEp-2 cell cytotoxicity, dose response, cytotoxicity control for RSV inhibitor project, HTS (AID 2410); format: functional; conditions: human respiratory syncytial virus

## COc1ccc2c(c1)c(C(=O)CN1CCc3ccccc3C1)c(C)n2C
[1]
  EC50: > 350 µM (not active)
[2]
  EC50: > 350 µM (not active)

## CCCCOc1ccc(CSCCN=C(N)N)cc1
[3]
  EC50: 3.35 µM (active)

## O=C(CSc1nnc(-c2ccncc2)o1)N1CCCCCC1
[1]
  EC50: > 350 µM (not active)
[2]
  EC50: > 350 µM (not active)

## C=C1C(O)[C@@H]2O[C@]3(CC[C@H](/C=C/C(C)[C@@H]4CC(C)=CC5(O[C@H](C[C@@](C)(O)CO)CCC5O)O4)O3)CC[C@H]2O[C@@H]1C(O)CC(C)[C@H]1OC2(CCCCO2)CCC1C (stereo partly specified)
[4]
  IC50: > 80 µM (inactive)
[5]
  AC50: 5.98 µM (active)

## Cn1c(CNc2ccccc2O)nc2ccccc21
[6]
  IC50: 4.79 µM (active)
[7]
  CC50: 30.4 µM (active)

## COc1cc(-c2noc(C)c2/C=C/c2ccc(OC(C)=O)cc2)cc(OC)c1OC
[4]
  IC50: 52.8 µM (inactive)
[8]
  AC50: 0.222 µM (active)

## COc1ccc(/C=C/CN2CCC(CO)(Cc3ccccc3Cl)CC2)cc1
[7]
  CC50: 32.7 µM (active)

## Cc1cc(C(=O)NNc2ccccc2F)no1
[9]
  EC50: 2.26 µM (active)
[10]
  AC50: 5.7 µM (active)
[11]
  EC50: 5.14 µM (active)

## Nc1ccc(N2CCN(c3ccccc3)CC2)c(F)c1
[10]
  AC50: 13.2 µM (active)
[12]
  IC50: 46.6 µM (active)

## CCS(=O)(=O)N1CCN(C(C)CCc2ccccc2)CC1 (stereo unspecified)
[13]
  IC50: 6 µM (not active)

## Cc1nn(C(=O)c2cccc([N+](=O)[O-])c2)c(C)c1Sc1ccccc1
[3]
  EC50: 2.66 µM (active)

## COc1ccc(Nc2ncnc3ccc(Br)cc23)c(OC)c1
[4]
  IC50: > 80 µM (inactive)
[14]
  EC50: 0.354 µM (active)

## NC(=O)c1nsc(C(=O)N(Cc2ccco2)C(C(=O)NCC2CCCO2)c2ccc(F)cc2)c1N (stereo unspecified)
[3]
  EC50: 10.6 µM (active)

## O=C(c1[nH]nc2c1CCc1ccccc1-2)N1CCN(Cc2ccc3c(c2)OCO3)CC1
[15]
  IC50: 4.07 µM (active)
[16]
  IC50: 8.27 µM (active)
[17]
  EC50: 5.4 µM (active)
[18]
  IC50: 5.11 µM (active)

## CC(C)CCN1CCN(Cc2ccsc2)CC1CCO (stereo unspecified)
[3]
  EC50: 4.22 µM (active)

## O=C1NC(=S)N/C1=C/c1cccn1-c1ccc([N+](=O)[O-])cc1
[13]
  IC50: 4.63 µM (not active)

## CCC1(C(=O)c2ccccc2)C(c2ccc([N+](=O)[O-])cc2)C1(C(=O)OC)C(=O)OC (stereo unspecified)
[3]
  EC50: 4.22 µM (active)

## Cc1c(C(=O)OC2CCCC2)[nH]c2c1C(=O)CC(c1ccco1)C2 (stereo unspecified)
[4]
  IC50: > 80 µM (inactive)

## CNCc1ccccc1OCc1ccccc1F
[13]
  IC50: 0.557 µM (active)
[19]
  AC50: > 20 µM (inactive)

## CCC(=O)N1CCc2cc(S(=O)(=O)NCCC(=O)N3CCN(c4cccc(OC)c4)CC3)ccc21
[1]
  EC50: > 350 µM (not active)
[2]
  EC50: > 350 µM (not active)

## CCOc1ccc(S(=O)(=O)N2c3ccccc3CC2C)cc1 (stereo unspecified)
[20]
  EC50: 3.2 µM (active)
[21]
  EC50: 7.42 µM (active)
[22]
  EC50: 7.65 µM (inconclusive)
[4]
  IC50: > 80 µM (inactive)

## CCN(CC)c1ccc([N+](=O)[O-])c2cccnc12
[23]
  CC50: 36.7 µM (active)
[3]
  EC50: 10.6 µM (active)

## O=C(C1CCCC1)N1CCN=C1SCc1cccc([N+](=O)[O-])c1
[10]
  AC50: 0.032 µM (active)
